Columns and labels:
[1] = test system: obese, leptin deficient mice; conditions: systemic administration to obese; cited from earlier work
rats = conditions: intracerebroventricular administration to rats; cited from earlier work
[2] = in vivo; cited from earlier work
human PrCP = human PrCP (Homo sapiens (Human), UniProt P42785); test: biochemical
Chain of human PrCP (P42785 46-496): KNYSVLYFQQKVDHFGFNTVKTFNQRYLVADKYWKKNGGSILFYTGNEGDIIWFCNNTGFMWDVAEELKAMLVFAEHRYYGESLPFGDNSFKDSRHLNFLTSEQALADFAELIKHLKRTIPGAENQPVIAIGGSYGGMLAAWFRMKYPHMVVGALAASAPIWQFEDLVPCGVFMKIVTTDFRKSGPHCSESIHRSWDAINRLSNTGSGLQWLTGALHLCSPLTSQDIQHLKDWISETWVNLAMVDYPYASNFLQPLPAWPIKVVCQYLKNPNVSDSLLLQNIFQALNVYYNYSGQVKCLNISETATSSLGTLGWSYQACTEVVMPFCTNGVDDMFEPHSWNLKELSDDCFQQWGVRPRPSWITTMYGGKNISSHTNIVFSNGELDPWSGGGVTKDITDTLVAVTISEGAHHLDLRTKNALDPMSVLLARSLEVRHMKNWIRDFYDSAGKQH
Experimental: The assay was performed using a Hamilton Star liquid handling workstation. The assay employed the internally quenched fluorescent substrate (1S)-1-carboxy-5-[(2,4-dinitrophenyl)amino]pentyl N-[(7-methoxy-2-oxo-2H-chromen-4-yl)acetyl]-L-alanyl-L-prolinate prepared in house.
The assay also contained 2% DMSO used to solubilize the substrate and inhibitor. Inhibitors were prepared in 100% DMSO and serial diluted (in 100% DMSO) to generate 11 point titration curves. Either 39 uL of human or mouse PrCP enzyme was added to the wells of the assay plate, followed by a 1 uL addition of the serially diluted inhibitor and mixed three times using a 30 uL mix volume. The reaction was initiated by the addition of 10 uL substrate and mixed three times using a 30 uL mix volume. […] IC50 values were calculated by comparing the resulting rates of reaction of the inhibited and control initial velocities.
The enzymes were diluted in a mixture of 10 mM NaOAc (pH 5.5)/100 mM NaCl buffer containing 25 ug/mL bovine serum albumin that had been warmed to 37° C. in a water bath. The PrCP inhibitor test compounds were plated in 100% DMSO with a highest concentration of 500 uM. There were 12 dilution points for each compound tested including a blank with DMSO only. […]

Row | Compound | weight loss, of body weight for drug compared to placebo [2] | other results
1 | t-butyl carbamate-prolyl prolinal [BPP] |  | overnight food intake [1]: suppression of overnight food intake; overnight food intake (rats): suppression of overnight food intake
2 | CC(C)(N)Cc1ccccc1 [phentermine] | 5%-10% | 
3 | O=C(NC(c1ccc(F)cc1)c1ccc(F)cc1)C1CCC(N2CCOCC2)CC1c1ccc(F)cc1 (single isomer, unassigned) [Example 4, N-[bis(4-fluorophenyl)methyl]-2-(4-fluorophenyl)-4-(morpholin-4-yl)cyclohexanecarboxamide] |  | IC50 (human PrCP): 2.1 nM
4 | CCCCCCCCCCC[C@@H](C[C@@H]1OC(=O)[C@H]1CCCCCC)OC(=O)[C@H](CC(C)C)NC=O [orlistat] | 5%-10% | 
5 | CC(C)CC(N(C)C)C1(c2ccc(Cl)cc2)CCC1 (stereo not shown) [sibutramine] | 5%-10% | 
6 | CCN[C@@H](C)Cc1cccc(C(F)(F)F)c1 [dexfenfluramine] | 5%-10% | 
